These results are taken from patent US10274490B2, “Magnetic labeling of bacteria” (The General Hospital Corporation, priority 2012, dated 2019).

Data set [1] relates to S. aureus. As to the kind of experiment: Confocal microscopy (MFNP-Tz) and TEM (GNP-Tz) of Crystal Violet-TCO stained bacteria. The data set is classed as cell-based, Staphylococcus aureus. Here is the method:
(§1) Bacterial cells in media were first washed with phosphate buffered saline solution (PBS). For μNMR measurements, absorbance measurements, confocal microscopy, and transmission electron microscopy (TEM), the bacteria (10^8 in 100 μl) were stained with 200 μM CV-TCO in 20% ethanol solution containing 8 mg/ml ammonium oxalate for 5 min. at room temperature, and washed with PBS. Then the bacteria were treated with Gram Iodine solution for 1 min. and decolorized with 95% ethanol solution. For μNMR and confocal microscopy, bacteria were incubated with 50 μg/ml MFNP-Tz in PBS for 20 min. at room temperature, and washed twice with PBS. For confocal microscopy, labeled bacteria were mounted on microscopic slides with Vectashield containing propium iodide (Vector Laboratories), and imaged. For TEM, the stained and decolorized bacteria were incubated with 50 μg/ml GNP-Tz in PBS for 1 h, washed with PBS, and dehydrated with graded ethanol series before applying onto a carbon grid (Ted Pella).
The left, middle, and right panels show images of the red channel, green channel, and a merged image of the red and green channels, respectively (Red: propidium iodide for nuclear staining; Green: MNFP-Tz staining; Scale bar=10 μm).
Gold nanoparticles were used instead of magnetic nanoparticles to obtain higher contrast.

A further data set relates to E. coli (Gram-negative). Kind of data set: Confocal microscopy control experiment. In kind it is cell-based, Escherichia coli. Conditions: Crystal Violet-TCO stained, decolorized. Here is the method:
as §1
The green channel (left) indicates MNFP-Tz, and the red channel (right) indicates propidium iodide. (Scale bar=5 μm).

Data set [2] has as its system S. aureus. As to the kind of experiment: μNMR sensitivity of the assay, serially diluted bacterial samples. The data set is classed as cell-based, Staphylococcus aureus. The conditions noted are these: Crystal Violet-TCO and MFNP-Tz. Here is the method:
as §1
To measure the sensitivity of the assay, measurements with serially diluted bacterial samples were performed and established a detection limit of about 4,000 bacteria with the experimental set-up used. […] Limit of detection was ˜4000 CFU.

Data set [3] deals with S. aureus (Gram-positive). Kind of data set: Gram staining, bright field microscopy. In kind it is cell-based, Staphylococcus aureus. Conditions: 1 mM Crystal Violet-TCO 3 min, iodine, 95% ethanol, Safranin counterstain. The protocol:
Bacterial cells were smeared onto microscopic slides, and stained with standard crystal violet (20 mM) or CV-TCO (1 mM) in 20% ethanol solution containing 8 mg/ml ammonium oxalate for 3 min. After washing with deionized water, slides were treated with Gram Iodine (BD Biosciences), decolorized with 95% ethanol solution, and counterstained with Gram safranin (BD Biosciences). Slides were observed using a bright field light microscope.
To test the efficacy of Crystal Violet-TCO as a staining agent for Gram-positive bacteria, three representative samples were prepared: Staphylococcus aureus (S. aureus; Gram-positive), Escherichia coli (E. coli; Gram-negative), and the mixture of both bacterial species. Bacterial smears on glass slides were stained with a solution of Crystal Violet-TCO (1 mM) or Crystal Violet for 3 min., followed by treatment with Gram's iodine solution for one minute, decolorization with 95% ethanol, and counterstaining with red Safranin solution.

Data set [4] in a line: Molar extinction coefficient. In kind it is physicochemical. Conditions: 592 nm.
In a further data set the test system is Gram-positive species. As to the kind of experiment: μNMR cellular relaxivity of bacteria stained with Crystal Violet-TCO and labeled with MFNP-Tz. The data set is classed as cell-based. Conditions: panel of bacterial species. The protocol: Bacterial cells in media were first washed with phosphate buffered saline solution (PBS). For μNMR measurements, absorbance measurements, confocal microscopy, and transmission electron microscopy (TEM), the bacteria (10^8 in 100 μl) were stained with 200 μM CV-TCO in 20% ethanol solution containing 8 mg/ml ammonium oxalate for 5 min. at room temperature, and washed with PBS. Then the bacteria were treated with Gram Iodine solution for 1 min. and decolorized with 95% ethanol solution. For μNMR and confocal microscopy, bacteria were incubated with 50 μg/ml MFNP-Tz in PBS for 20 min. at room temperature, and washed twice with PBS. […]
To test whether bacteria labelled with Crystal Violet-TCO could be magnetically labeled via cycloaddition to the TCO group, bacteria stained with Crystal Violet-TCO were incubated with magnetofluorescent nanoparticles modified with tetrazine (MFNP-Tz). […] The T2 relaxation values of samples were measured using a miniaturized μNMR system. For comparative analyses, the absorption (at 595 nm) of the same samples was also measured. Cellular relaxivity (r2) was obtained by normalizing the measured 1/T2 values with bacterial concentration, and the r2 differences (Δr2) between targeted and control samples were calculated. […]

Data set [5] concerns Gram-positive and Gram-negative bacteria. Kind of data set: μNMR detection before and after decolorization. The data set is classed as cell-based. The protocol:
as §1
The magnetic labeling detection strategy using Crystal Violet-TCO can be applied to detect both Gram-positive and Gram-negative bacteria. A modified protocol was adopted in which staining was performed without the decolorization process, which results in labeling both Gram-positive and Grain-negative bacteria, since the Gram-negative bacteria also retain the Crystal Violet-TCO. […]

In data set [6] the test system is S. aureus (Gram-positive). As to the kind of experiment: Absorbance at 595 nm / UV-visible spectrometry of stained bacteria. The data set is classed as cell-based, Staphylococcus aureus. Conditions: E. coli (G−) as comparison. Here is the method: as §1
A further data set relates to Nocardia Farcinica. As to the kind of experiment: Bioorthogonal labeling with Trehalose-TCO and Oregon Green-Tz, cell fluorescence microscopy. In kind it is cell-based. Here is the method:
Nocardia Farcinica bacteria (ATCC 3308) at an OD600 of 0.8 in growth medium (0.1 mL) was added 100 μM Trehalose-TCO, Trehalose-fluorescein or DMSO (as a control) in growth media (1% DMSO). Bacteria were incubated at 37° C. with shaking for 16 h. Bacteria were then centrifuged (7 min., 8000 rpm) and washed (2×100 μL PBS solution containing 2% fetal bovine serum (FBS) and 1 mg/mL bovine serum albumin (BSA) PBS-F).
Bacteria treated with Trehalose-TCO were incubated with 50 μg/mL MFNP-Tz MNFP-Tz or 10 μM Oregon Green-Tz for 20 min. in PBS-F. Bacteria were then centrifuged (7 min., 8000 rpm) and washed (2×100 μL PBS-F). Bacteria were then fixed with 10% PFA in PBS (100 μL) for 20 min., centrifuged and resuspended in 10 μL PBS. 3 μL were spread out on a 96 wells plates (Nunc, Cat No 137103 (Roskilde, Denmark, pre-wet with PBS-F). Bacteria were dried out in an incubator 37 C for 30 min. then mounting media containing […] was added to samples. Imaging was done on a DeltaVision microscope (Applied Precision Instruments) at 60×.

The subject of data set [7] is Gram-positive bacteria. Kind of data set: Magnetic resonance detection of bacteria labeled with daptomycin-TCO and MFNP-Tz. The data set is classed as cell-based. Conditions: daptomycin-TCO then MFNP-Tz. Here is the method:
(§2) For two-step labeling using Daptomycin-TCO, the drug conjugates were incubated in buffer solution containing 5 mM 4-(2-hydroxyethyl)-1-piperazineethanesulfonic acid (HEPES), 5 mM CaCl2, 2% FBS, and 1 mg/ml BSA at room temperature for 30 min. After washing twice with PBS-F, bacterial cells were incubated with 50 μg/ml MFNP-Tz in PBS-F for 20 min. at room temperature.
All μNMR measurements were performed using the portable NMR system recently developed for point-of-care operations as described by Issadore, et al. Lab Chip 2011, 11, 2282-87. The polarizing magnetic field was ˜0.5 T. Transverse relaxation times were measured on 1-2 μL sample volumes, using Carry-Purcell-Meiboom-Gill pulse sequences with the following parameters: echo time, 3 ms; repetition time, 4 s; number of 180° pulses per scan, 900; number of scans, 7.
(§3) Daptomycin-TCO was used to magnetically label bacteria using methods similar to those described in Example 1.

Data set [8] concerns Gram-positive bacteria. Kind of data set: Fluorescence spectrometry of bacteria labeled with daptomycin-TCO and MFNP-Tz. The conditions noted are these: daptomycin-TCO at various concentrations, then MFNP-Tz. The data set is classed as cell-based. Here is the method:
as §2
For fluorescence spectrometry, μNMR measurements, and flow cytometry, the cells were fixed in 10% paraformaldehyde (PFA) for 30 min., and then exchanged into PBS solution. Fluorescence measurements were taken using the Safire2 microplate reader (TECAN, Mannedorf, Switzerland). Increased relative fluorescence intensity (% RFU) values were calculated as 100×(Itarget−Inon)/Inon, where Itarget and Inon are intensity values of targeted and non-targeted bacteria, respectively. Flow cytometry was performed using LSRII (BD Biosciences). All labeling experiments and measurements were performed at least 3 times to confirm the reproducibility and robustness of the method.
as §3

For data set [9], the target named is Gram-positive bacteria. Kind of data set: Competitive inhibition of vancomycin-TCO labeling by unmodified vancomycin. The conditions noted are these: 1-200 μM unmodified vancomycin added to 20 μM vancomycin-TCO; fluorescence and magnetic resonance; all Gram-positive bacteria; read-out: inhibition binding constant (Ki). The protocol:
For two-step labeling, the washed cells were incubated with 1-20 μM vancomycin TCO in PBS-F at room temperature for 30 min. For competition studies, 1-200 μM unmodified vancomycin was added to 20 μM vancomycin-TCO.
To further characterize the binding properties of vancomycin-TCO, competitive inhibition studies were performed in which unmodified vancomycin was introduced together with vancomycin-TCO, before reacting with MFNP-Tz.
FIGS. 8A and 8B show the results of competition studies of vancomycin-TCO using both fluorescence (FIG. 8A) and magnetic resonance (FIG. 8B) measurements. […] The inhibition binding constant (Ki) was about 6 μM for all Gram-positive bacteria, a value which was similar to that of vancomycin-TCO.

As to `CC[N+](CCNC(=O)OC1CC/C=C/CCC1)=C1C=CC(=C(c2ccc(N(C)C)cc2)c2ccc(N(C)C)cc2)C=C1` (centres unmarked) [Crystal Violet-TCO, (E)-N-(4-(bis(4-(dimethylamino)phenyl)methylene)cyclohexa-2,5-dien-1-ylidene)-2-(((cyclooct-4-en-1-yloxy)carbonyl)amino)-N-ethylethanaminium chloride], the “transmission electron microscopy observation” value in the data set with S. aureus [1] (CV-TCO then GNP-Tz) was “Gold nanoparticles were found distributed throughout the bacterial surface”. Also, in the data set with S. aureus [1] (Crystal Violet-TCO then MFNP-Tz), the confocal microscopy observation result is “uniform and high fluorescence signals in the bacterial cell wall”. The “confocal microscopy MFNP-Tz signal” value in the data set with E. coli (Gram-negative) is recorded as “absence of MFNP-Tz signal”. The detection limit result in the data set on S. aureus [2] is recorded as “about 4,000 bacteria”. The compound further came in with a Limit of detection in the data set with S. aureus [2] (ΔR2) of around 4000 CFU. Besides, in data set [3], the “colour after Gram staining and decolorization” value is given as “remained purple”. Also, in data set [4], the “molar extinction coefficient ε592” value came to 133013 L/mol/cm. Besides, in the data set with Gram-positive species, the “cellular relaxivity of Gram-positive species” value is “significantly higher cellular relaxivity values when compared to Gram-negative bacteria”. The μNMR detection result was “only Gram-positive species retained their signals” in data set [5] (after decolorization); “both Gram-positive and negative bacteria could be magnetically labeled and detected” in data set [5] (before decolorization). For the same compound, the “UV absorbance of stained bacteria” value in data set [6] is reported as “intense absorption at 595 nm”.
On to `C[C@]1(O[C@H]2O[C@H](CO)C(O)C(O)C2NC(=O)OC2CC/C=C/CCC2)OC(CO)[C@@H](O)C(O)C1O` (stereo partly drawn) [Trehalose-TCO, 1-deoxy-α-D-gluco-hept-2-ulopyranosyl-(2→1)-2-deoxy-2-((E)-cyclooct-4-en-1-yl carbamate)-α-D-glucopyranoside], for which the kinetics of incorporation entry in the data set on Nocardia Farcinica (0-16 h, subsequent labeling with Oregon Green-Tz) is recorded as “gradual increase in the extent of labeling”. Also, the cell fluorescence entry in the data set with Nocardia Farcinica (100 μM Trehalose-TCO 16 h, then 10 μM Oregon Green-Tz) is given as “Bright green fluorescence of the cells is observed”.
With `CN(C)c1ccc(C(=C2C=CC(=[N+](C)C)C=C2)c2ccc(N(C)C)cc2)cc1` [crystal violet, reference compound], in data set [4], the “molar extinction coefficient ε592” value is 89146 L/mol/cm.
On to `CCCCCCCCCC(=O)N[C@@H](Cc1c[nH]c2ccccc12)C(=O)N[C@@H](CC(N)=O)C(=O)N[C@@H](CC(=O)O)C(=O)N[C@@H]1C(=O)NCC(=O)N[C@@H](CCCNC(=O)OC2CC/C=C/CCC2)C(=O)N[C@@H](CC(=O)O)C(=O)N[C@H](C)C(=O)N[C@@H](CC(=O)O)C(=O)NCC(=O)N[C@H](CO)C(=O)N[C@@H]([C@@H](C)CC(=O)O)C(=O)N[C@@H](CC(=O)c2ccccc2N)C(=O)O[C@@H]1C` (some centres unmarked) [daptomycin-TCO], for which, in the data set on Gram-positive bacteria [7], the cellular relaxivity turned out to be 1.32 s^−1[CFU/μL]^−1. In the data set with Gram-positive bacteria [8], the “increased relative fluorescence intensities” value is “up to 220%”.
`CN[C@H](CC(C)C)C(=O)N[C@H]1C(=O)N[C@@H](CC(N)=O)C(=O)N[C@H]2C(=O)N[C@H]3C(=O)N[C@H](C(=O)N[C@H](C(=O)O)c4cc(O)cc(O)c4-c4cc3ccc4O)[C@H](O)c3ccc(c(Cl)c3)Oc3cc2cc(c3O[C@@H]2O[C@H](CO)[C@@H](O)[C@H](O)[C@H]2O[C@H]2C[C@](C)(N)[C@H](O)[C@H](C)O2)Oc2ccc(cc2Cl)[C@H]1O` [vancomycin]: the Ki on Gram-positive bacteria [9] is around 6 µM.

As a reminder, the Ki is a measure of affinity in units of concentration, obtained from inhibition or displacement.
